According to PubChem BioAssay AID330 (DTP/NCI, 2004):
Several values for one entry are separate records, joined by “and”; a condition that tells them apart may be missing. Equal entries are not always repeated. Toxic doses and inconclusive results are not listed. Rule for the calls: active = survival T/C of 150% or more; inactive = T/C below 125% in these data.

Tested on: P388 leukemia ip, CD2F1 mice, survival T/C
Experiment: NCI In Vivo Anticancer Drug Screen. Data for tumor model P388 Leukemia (intraperitoneal) in CD2F1 (CDF1) mice
Conditions: endpoint: median survival time, higher = longer survival
Procedure, shortened: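 Mice carrying the transplanted tumor received test compound or vehicle. Survival was recorded in each group, and the value is the treated-group measurement divided by that of the vehicle-treated control group.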

[1] = dose: 50.0 mg/kg/injection, schedule: Q01DX009 (ip), vehicle: saline
[2] = dose: 100.0 mg/kg/injection, schedule: Q01DX009 (ip), vehicle: saline
[3] = dose: 200.0 mg/kg/injection, schedule: Q01DX009 (ip), vehicle: saline
[4] = dose: 50.0 mg/kg/injection, schedule: Q01DX009 (ip), vehicle: saline with Tween-80
[5] = dose: 100.0 mg/kg/injection, schedule: Q01DX009 (ip), vehicle: saline with Tween-80
[6] = dose: 200.0 mg/kg/injection, schedule: Q01DX009 (ip), vehicle: saline with Tween-80
[7] = dose: 50.0 mg/kg/injection, schedule: Q01DX009 (ip), vehicle: Klucel (hydroxypropylcellulose) (HPC)
[8] = dose: 100.0 mg/kg/injection, schedule: Q01DX009 (ip), vehicle: Klucel (hydroxypropylcellulose) (HPC)
[9] = dose: 200.0 mg/kg/injection, schedule: Q01DX009 (ip), vehicle: Klucel (hydroxypropylcellulose) (HPC)
[10] = dose: 60.0 mg/kg/injection, schedule: Q01DX005 (ip), vehicle: Klucel (hydroxypropylcellulose) (HPC)
[11] = dose: 120.0 mg/kg/injection, schedule: Q01DX005 (ip), vehicle: Klucel (hydroxypropylcellulose) (HPC)
[12] = dose: 240.0 mg/kg/injection, schedule: Q01DX005 (ip), vehicle: Klucel (hydroxypropylcellulose) (HPC)
[13] = dose: 60.0 mg/kg/injection, schedule: Q01DX005 (ip), vehicle: saline with Tween-80
[14] = dose: 120.0 mg/kg/injection, schedule: Q01DX005 (ip), vehicle: saline with Tween-80
[15] = dose: 240.0 mg/kg/injection, schedule: Q01DX005 (ip), vehicle: saline with Tween-80
[16] = dose: 50.0 mg/kg/injection, schedule: Q01DX005 (ip), vehicle: Klucel (hydroxypropylcellulose) (HPC)
[17] = dose: 100.0 mg/kg/injection, schedule: Q01DX005 (ip), vehicle: Klucel (hydroxypropylcellulose) (HPC)
[18] = dose: 200.0 mg/kg/injection, schedule: Q01DX005 (ip), vehicle: Klucel (hydroxypropylcellulose) (HPC)
[19] = dose: 50.0 mg/kg/injection, schedule: Q01DX005 (ip), vehicle: saline with Tween-80
[20] = dose: 100.0 mg/kg/injection, schedule: Q01DX005 (ip), vehicle: saline with Tween-80
[21] = dose: 200.0 mg/kg/injection, schedule: Q01DX005 (ip), vehicle: saline with Tween-80
[22] = dose: 25.0 mg/kg/injection, schedule: Q01DX005 (ip), vehicle: saline with Tween-80

Measured: T/C

O=C(O)c1cc(C(=O)O)cc(N2C(=O)c3ccccc3C2=O)c1
inactive: [1] 100 % of control | [2] 87 % of control | [3] 89 % of control

S=C(N/N=C(\c1ccccc1)c1ccccn1)SCc1ccccc1
inactive: [4] 99 % of control | [5] 90 % of control | [6] 97 % of control

N/N=C1\c2ccccc2-c2cccc(O)c21
inactive: dose: 7.5 mg/kg/injection, schedule: Q01DX005 (ip), vehicle: saline with Tween-80 101 % of control | dose: 15.0 mg/kg/injection, schedule: Q01DX005 (ip), vehicle: saline with Tween-80 97 % of control | dose: 30.0 mg/kg/injection, schedule: Q01DX005 (ip), vehicle: saline with Tween-80 93 % of control

N#CC1CPCCC1N (stereo not drawn)
inactive: [4] 102 % of control | [5] 106 % of control | [6] 114 % of control

COc1cc2cnc(-c3ccccn3)c(O)c2cc1OC
inactive: [1] 100 % of control | [2] 90 % of control | [3] 94 % of control

O=C(NNC1=NCCN1Cc1ccccc1)c1cccc(Cl)c1
inactive: [7] 100 % of control | [8] 100 % of control | [9] 100 % of control

OC(Cc1nc2ccccc2s1)c1ccco1 (stereo not drawn)
inactive: [10] 101 % of control | [11] 103 % of control | [12] 103 % of control

O=C(/C=C/c1c[nH]c2ccccc12)c1cccc([N+](=O)[O-])c1
inactive: [13] 97 % of control | [14] 94 % of control | [15] 92 % of control

CC(C)CC1N=C(NN=C2CCCCC2)SP1(=O)NNc1ncccn1 (stereo not drawn)
inactive: [10] 94 % of control | [11] 97 % of control

COC1/C=C/OC2(C)Oc3c(C)c(O)c4c(O)c(c(/C=N/n5c(=O)[nH]c6ccccc6c5=O)c(O)c4c3C2=O)NC(=O)/C(C)=C\C=C\C(C)C(O)C(C)C(O)C(C)C(OC(C)=O)C1C (stereo not drawn)
inactive: [4] 107 % of control | [5] 108 % of control | [6] 106 % of control

O=C([O-])c1ccccc1[O-].[Cu+2].c1ccc(-c2ccccn2)nc1
inactive: dose: 6.25 mg/kg/injection, schedule: Q01DX005 (ip), vehicle: Klucel (hydroxypropylcellulose) (HPC) 104 % of control | dose: 12.5 mg/kg/injection, schedule: Q01DX005 (ip), vehicle: Klucel (hydroxypropylcellulose) (HPC) 113 % of control

CS(=O)(=O)/N=C/N(CCc1ccccc1)c1ccccc1
inactive: [10] 101 % of control | [11] 99 % of control | [12] 99 % of control

C=C1C(=O)OC2CC(C)C3C=CC(=O)C3CC12 (stereo not drawn)
inactive: dose: 0.15 mg/kg/injection, schedule: Q01DX009 (ip), vehicle: Klucel (hydroxypropylcellulose) (HPC) 98 % of control | dose: 0.3 mg/kg/injection, schedule: Q01DX009 (ip), vehicle: Klucel (hydroxypropylcellulose) (HPC) 100 % of control | dose: 0.6 mg/kg/injection, schedule: Q01DX009 (ip), vehicle: Klucel (hydroxypropylcellulose) (HPC) 99 % of control and 103 % of control | dose: 2.34 mg/kg/injection, schedule: Q01DX009 (ip), vehicle: Klucel (hydroxypropylcellulose) (HPC) 102 % of control | dose: 2.4 mg/kg/injection, schedule: Q01DX009 (ip), vehicle: Klucel (hydroxypropylcellulose) (HPC) 104 % of control

C=C(C)C1(n2[nH]c(=O)n(-c3ccccc3)c2=O)CCC(C)=CC1=O (stereo not drawn)
inactive: dose: 100.0 mg/kg/injection, schedule: Q01DX001 (ip), vehicle: saline with Tween-80 102 % of control | dose: 200.0 mg/kg/injection, schedule: Q01DX001 (ip), vehicle: saline with Tween-80 95 % of control | dose: 400.0 mg/kg/injection, schedule: Q01DX001 (ip), vehicle: saline with Tween-80 87 % of control

Cc1ncn(-c2ccccc2)c(=O)c1N=Cc1ccccc1
inactive: [13] 86 % of control | [14] 87 % of control

CCC12OCC(C)(C)N1OC(=O)N2c1ccccc1 (stereo not drawn)
inactive: [16] 96 % of control | [17] 96 % of control | [18] 97 % of control

COc1cc(CCC(=O)O)on1
inactive: [1] 101 % of control | [2] 109 % of control | [3] 108 % of control

Cc1cc(NCCN(C(C)C)C(C)C)nc(/N=C(\N)Nc2ccc(Cl)c(C(F)(F)F)c2)n1
inactive: dose: 10.0 mg/kg/injection, schedule: Q04DX003 (ip), vehicle: Klucel (hydroxypropylcellulose) (HPC) 107 % of control and 123 % of control | dose: 20.0 mg/kg/injection, schedule: Q04DX003 (ip), vehicle: Klucel (hydroxypropylcellulose) (HPC) 123 % of control

CCOC(=O)c1n[nH]c(C)c1C/C(=N/O)c1ccccc1
inactive: [19] 103 % of control | [20] 92 % of control | [21] 92 % of control

CC(=O)n1c(Cl)c(C=O)c2ccccc21
inactive: dose: 100.0 mg/kg/injection, schedule: Q01DX001 (ip), vehicle: Klucel (hydroxypropylcellulose) (HPC) 99 % of control | dose: 200.0 mg/kg/injection, schedule: Q01DX001 (ip), vehicle: Klucel (hydroxypropylcellulose) (HPC) 99 % of control | dose: 400.0 mg/kg/injection, schedule: Q01DX001 (ip), vehicle: Klucel (hydroxypropylcellulose) (HPC) 100 % of control

Oc1ccc(N=C2N=c3c(c4ccccc4c4ccccc34)=N2)c2ccccc12
inactive: [22] 98 % of control | [19] 100 % of control | [20] 100 % of control | [21] 107 % of control

CCOC(=O)C1CC(c2ccccc2)=NN1c1ccccc1 (stereo not drawn)
inactive: dose: 25.0 mg/kg/injection, schedule: Q01DX009 (ip), vehicle: Klucel (hydroxypropylcellulose) (HPC) 96 % of control | [7] 96 % of control | [8] 99 % of control | [9] 99 % of control | dose: 400.0 mg/kg/injection, schedule: Q01DX009 (ip), vehicle: Klucel (hydroxypropylcellulose) (HPC) 96 % of control

N=C(N)N=Nc1ccc(O)cc1
inactive: [14] 119 % of control

N#Cc1c(-c2ccccc2)ssc1=S
inactive: [13] 104 % of control | [14] 103 % of control | [15] 106 % of control

CC(C)=Cc1cc(CCC/C(C)=C/Cc2c(O)cc(C)c(C(=O)O)c2O)co1
inactive: dose: 4.5 mg/kg/injection, schedule: Q01DX005 (ip), vehicle: Klucel (hydroxypropylcellulose) (HPC) 100 % of control | dose: 9.0 mg/kg/injection, schedule: Q01DX005 (ip), vehicle: Klucel (hydroxypropylcellulose) (HPC) 91 % of control | dose: 18.0 mg/kg/injection, schedule: Q01DX005 (ip), vehicle: Klucel (hydroxypropylcellulose) (HPC) 92 % of control | dose: 36.0 mg/kg/injection, schedule: Q01DX005 (ip), vehicle: Klucel (hydroxypropylcellulose) (HPC) 98 % of control | [16] 105 % of control | dose: 72.0 mg/kg/injection, schedule: Q01DX005 (ip), vehicle: Klucel (hydroxypropylcellulose) (HPC) 88 % of control | [17] 107 % of control | [18] 98 % of control

CCOC(=O)c1sc(=S)n(C)c1C
inactive: dose: 12.5 mg/kg/injection, schedule: Q01DX005 (ip), vehicle: saline with Tween-80 100 % of control | [22] 103 % of control | [19] 102 % of control and 104 % of control

CN(C)C1c2cc(Cl)ccc2-c2c(N)cc(Cl)cc21 (stereo not drawn)
inactive: [16] 103 % of control | [17] 99 % of control | [18] 91 % of control

COC(=O)C1=[N+]([O-])OC(C(=O)OC)C1c1ccc(F)cc1 (stereo not drawn)
inactive: [13] 93 % of control | [14] 90 % of control | [15] 94 % of control
